Experimental data reported in patent US20240027428A1, “METHOD FOR BUILDING CO-CULTURE MODEL FOR CACO-2/RAW-264.7 CELLS INDUCED BY LIPOPOLYSACCHARIDES AND APPLICATION OF CO-CULTURE MODEL” (ZHEJIANG UNIVERSITY OF TECHNOLOGY, priority 2022, published 2024).

What was measured:
[1] = tested on: Caco-2 cells; assay: CCK-8 cytotoxicity test, viability of Caco-2 cells; type: cell-based; conditions: Caco-2, 24 h, 0.2 mg/mL and below (P>0.05)
Method: Cytotoxicity tests: according to manufacturer's instructions, cell viability was determined with a CCK-8 (Nanjing Jiancheng Biological Engineering Research Institute, Nanjing, China). In short, Caco-2 cells were treated with [MUT] liposomes at concentrations of 0.1 mg/mL, 0.2 mg/mL, 0.3 mg/mL, and 0.4 mg/mL, incubated for 24 h, then washed with PBS once, and added with a CCK-8 solution. Incubation was performed at 37° C. for 4 h, and an optical density at 450 nm was determined. […] NL and [MUT] on the viability of Caco-2 cells were inspected with a CCK-8 method. The Caco-2 cells were inoculated onto a 96-well plate having each well of 100 μL at a density of 1×10^5 cells/mL, and 200 μL of PBS was added to a peripheral well of the 96-well plate, to provide a humidity environment. […] After incubation for 24 h, 20 μL of a CCK-8 solution was added to each well, incubation was performed in an incubator at 37° C. for 1 h, and then an optical density (OD) at a wavelength of 490 nm was detected with a microplate reader and was calculated according to the following formula: Cell viability (%)=ODtreatment well/ODcontrol well×100% where the ODtreatment well represented an optical density of cells after addition of drugs, and the ODcontrol well represented an optical density of cells in a blank control.

[2] = tested on: inflammatory factors IL-6, IL-8, IL-1β, and TNF-α; assay: Content of inflammatory factors in LPS-induced Caco-2/RAW-264.7 co-culture model (ELISA); type: cell-based
Method: (§1) Cell co-culture: Caco-2 cells were inoculated onto a 6-well Transwell plate at a density of 1×10^5 cells/well. A culture medium was changed once every 1-2 days in 21 consecutive days. RAW-264.7 cells were inoculated onto a side wall of a substrate at a density of 1×10^5 cells/well, and were cultured in 5% carbon dioxide at 37° C. for 48 h, to promote obvious adhesion of the cells to the side wall of the substrate. After 48 h, the culture medium was replaced with a serum-free DMEM. It was intended to evaluate the absorption of C3G liposomes in a co-culture model.
Determination of the content of inflammatory factors in a co-culture model: levels of inflammatory factors IL-6, IL-8, IL-1β, and TNF-α in a supernatant of Caco-2 cells in an LPS-induced co-culture model were determined with an ELISA kit.

[3] = tested on: Caco-2 cells; assay: Effect of time on uptake in a co-culture model; type: in vitro ADME; conditions: 0.2 mg/mL, 0-6 h
Method: as §1
Effect of time on uptake in a co-culture model: 0.2 mg/mL of a C3G and C3G NL solution was prepared with a DMEM, 0.1 ml of a sample solution was added on an AP side, 0.6 mL of a DMEM was added on an BL side, culture was performed in an incubator at 37° C. for 1 h, 2 h, 3 h, 4 h, 5 h, and 6 h, three wells were provided at each time point, a drug-containing buffer solution was discarded after incubation, precooled PBS was added to stop cellular uptake, and cell monolayers were quickly washed for three times. […] A cell suspension was dissolved with methanol and centrifuged at 15,000 rpm for 20 min, then a supernatant was taken, and the content of C3G was determined with HPLC.

[4] = tested on: Caco-2 cells; assay: Effect of concentration on transport in a co-culture model; type: in vitro ADME; conditions: at 1 h; not saturated
Method: as §1
Effect of concentration on uptake in a co-culture model: 0.02 mg/ml, 0.04 mg/ml, […], 0.08 mg/ml, and 0.1 mg/ml of C3G and C3G NL solutions were prepared, transport from an AP side to a BL side and transport from the BL side to the AP side were evaluated, 0.1 ml of a sample was added on the AP side, 0.6 ml of a sample was added on the BL side, three wells were provided, […], a culture medium was discarded after culture, and uptake was stopped using an HBSS. The content of the sample on the BL side was determined with HPLC.

[5] = tested on: Caco-2 cells; assay: Effect of temperature on uptake in a co-culture model; type: in vitro ADME; conditions: 4° C. to 37° C. (P<0.0001)
Method: as §1
Effect of temperature on uptake in a co-culture model: 0.2 mg/mL of a C3G and C3G NL solution was prepared with an HBSS, 0.1 ml of a sample solution was added on an AP side, 0.6 mL of an HBSS was added on an BL side, cells were cultured in environments at 37° C. and 4° C. for 2 h, three wells were provided at each temperature, a culture medium was discarded after culture, and uptake was stopped using an HBSS. The content of a sample on the BL side was determined with HPLC.

[6] = tested on: Caco-2 cells; assay: Effect of an endocytosis inhibitor on uptake/transport in a co-culture model; type: in vitro ADME; conditions: β-CD, chlorpromazine (CPZ), cytochalasin D (P>0.05)
Method: as §1
Effect of an endocytosis inhibitor on uptake in a co-culture model: 0.2 mg/mL of a C3G and C3G NL solution was prepared with an HBSS, 0.1 ml of a sample solution was added on an AP side, 0.6 mL of an HBSS was added on a BL side, an MEM, 10 mmol/L ([…]) of β-CD,10 μg/mL of chlorpromazine, 2 μmol/L (1 μg/ml) of cytochalasin D (0.1 ml) were added and sucked out after 30 min, cells were cultured in an environment at 37° C. for 1 h, three wells were provided, a culture medium was discarded after culture, and uptake was stopped using an HBSS. The content of a sample was determined with HPLC, and Papp was calculated.

[7] = tested on: Caco-2 cells; assay: Transport tests for Lucifer yellow across Caco-2 monolayer in Transwell; type: in vitro ADME; conditions: 20 μg/mL Lucifer yellow, AP to BL, Caco-2 cultured 21 days
Method: Drawing of a standard curve for Lucifer yellow: 0.005 μg/mL, 0.01 μg/mL, 0.025 μg/mL, 0.05 μg/mL, 0.1 μg/mL, and 0.25 μg/mL of standard solutions for Lucifer yellow were prepared, the fluorescence intensities (an excitation wavelength: 427 nm, and an emission wavelength: 536 nm) of the standard solutions for Lucifer yellow were measured with a fluorescence spectrophotometer, and linear regression was performed with the fluorescence intensity as an ordinate and the concentration ([…]) as an abscissa. A standard curve was drawn.
Transport tests for Lucifer yellow: Caco-2 cells grew to 21 days in a Transwell, and then a culture medium was sucked and discarded. A preheated HBSS was added to both an AP side and a BL side for cleaning twice and was sucked and discarded, and then a preheated HBSS was added to perform culture under the conditions of 37° C. and 5% CO2 for 20 min. […] Under the condition of Ex=427 nm and Em=536 nm, the fluorescence intensity was measured according to a standard curve and a transport formula. A concentration and permeability coefficient of a transport solution for the Lucifer yellow CH on the BL side were calculated. […]

Molecule | change of cell viability compared with blank group [1] | production of inflammatory factors after pretreatment [2] | time of maximum uptake amount in Caco-2 cells [3] [h] | transport amounts in Caco-2 cells with concentration [4] | uptake amounts in Caco-2 cells with increase of temperature [5] | transport amounts after addition of endocytosis inhibitor compared with blank group [6] | Papp (apparent permeability coefficient) [7] [nm/s]
OC[C@H]1O[C@@H](Oc2cc3c(O)cc(O)cc3[o+]c2-c2ccc(O)c(O)c2)[C@H](O)[C@@H](O)[C@@H]1O [C3G, Cyanidin-3-glucoside] | did not change significantly | reduced in a dose-dependent manner | 2 | increased with the increase of concentration | increased significantly | no significant changes | –
Lucifer yellow | – | – | – | – | – | – | 0.303
